Measured values published in PMC5833756, “A novel ruthenium complex with xanthoxylin induces S-phase arrest and causes ERK1/2-mediated apoptosis in HepG2 cells through a p53-independent pathway” (Cell Death & Disease, 2018).
Where two headings read alike, the source gives them in different places. Marks after values point to notes of the source that are not given here.

Key:
HCT116 = type: cell-based, human
HT-29 = type: cell-based, human
HepG2 = type: cell-based, human
SCC-4 = type: cell-based, human
SCC-9 = type: cell-based, human
SCC-15 = type: cell-based, human
SCC-25 = type: cell-based, human
ACP-02 = type: cell-based, human
HL-60 = type: cell-based, human
B16-F10 = type: cell-based, mouse
MRC-5 = type: cell-based; conditions: MRC5; MRC-5 (human lung fibroblast, non-cancer), 72 h
HaCAT = type: cell-based; conditions: HaCAT (human keratinocyte, non-cancer), 72 h
PBMC = type: cell-based; conditions: PBMC (human peripheral blood mononuclear cells, non-cancer), 72 h
[1] = system: multicellular spheroids formed from HepG2 cells; assay: 3D multicellular spheroid culture, alamar blue; type: cell-based, human; conditions: Homo sapiens; HepG2 3D spheroids, 72 h
Protocol: HepG2 cells were cultivated in 3D multicellular spheroids. Briefly, 100 μL of cell solution (0.5 × 10^6 cells/mL) was added to a 96-well plate with a cell-repellent surface (Greiner Bio-One, Kremsmünster, Austria) and cultured in complete medium plus 3% Matrigel (BD Biosciences, San Jose, CA, USA). Spheroids with stable structures formed after three days. Then, the spheroids were exposed to a range of drug concentrations for 72 h. The negative control received the vehicle that was used for diluting the complex tested. In the end of the experiment, morphological changes were examined by light microscopy (Olympus BX41, Tokyo, Japan) using Image-Pro software (Media Cybernetics, Inc. Silver Spring, USA), and cell viability was quantified by alamar blue assay as described above.

WT SV40 MEF = type: cell-based, mouse; conditions: Mus musculus, 72 h
BAD KO SV40 MEF = type: cell-based, mouse; conditions: Mus musculus, 72 h
HepG2 cells [2] = assay: Trypan blue exclusion assay; type: cell-based, human; conditions: HepG2, 24 h; DOX 2 µM, OXA 10 µM
calf thymus DNA = assay: DNA intercalation assay (ethidium bromide displacement); type: binding; conditions: 20 μM, cell-free, 15 min
Protocol: DNA intercalation was assessed by examining the ability of the complex to displace ethidium bromide from ctDNA (Sigma-Aldrich)[36]. […] After a 15 min of incubation at room temperature, fluorescence was measured using the excitation and emission wavelengths of 320 nm and 600 nm, respectively, using the Spectramax Microplate Reader (Molecular Devices).

HepG2 cells [3] = type: cell-based, human; conditions: DOX 2 µM, OXA 10 µM, RCX 12 µM
Protocol: Briefly, the cells were harvested in a permeabilization solution containing 0.1% Triton X-100, 2 µg/mL PI, 0.1% sodium citrate and 100 µg/mL RNAse (all from Sigma-Aldrich) and incubated in the dark for 15 min at room temperature. Finally, cell fluorescence was measured by flow cytometry with a BD LSRFortessa cytometer using BD FACSDiva Software (BD Biosciences) and FlowJo Software 10 (FlowJo Lcc; Ashland, OR, USA). Ten thousand events were evaluated per experiment, and cellular debris was omitted from the analysis.

AGP-01 = AGP-01 (human ascitic gastric adenocarcinoma), 72 h
[4] = i.p. 21 days, DOX 0.3 mg/kg, 5-FU 10 mg/kg, RCX 2.5 mg/kg
[5] = peripheral blood, i.p. 21 days, DOX 0.3 mg/kg, 5-FU 10 mg/kg, RCX 2.5 mg/kg
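For Final body weight in this document: mice bearing subcutaneous HepG2 xenografts, given intraperitoneal doses once daily for 21 days, weighed at start and end, blood leukocytes counted by light microscopy on day 22.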
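For Initial body weight in this document: mice bearing subcutaneous HepG2 xenografts, given intraperitoneal doses once daily for 21 days, weighed at start and end, blood leukocytes counted by light microscopy on day 22.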
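For Survival in this document: mice bearing subcutaneous HepG2 xenografts, given intraperitoneal doses once daily for 21 days, weighed at start and end, blood leukocytes counted by light microscopy on day 22.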
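For lung histopathological characteristics in this document: mice bearing subcutaneous HepG2 xenografts, given intraperitoneal doses once daily for 21 days, weighed at start and end, blood leukocytes counted by light microscopy on day 22.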

COc1cccc2c1C(=O)c1c(O)c3c(c(O)c1C2=O)C[C@@](O)(C(=O)CO)C[C@@H]3O[C@H]1C[C@H](N)[C@H](O)[C@H](C)O1 [DOX, doxorubicin]
IC50 (HCT116; HCT-116, HCT116 (human colon carcinoma), 72 h): 200 nM
selectivity index (SI) (HCT116; IC50 HaCAT / IC50 HCT116): 0.5
selectivity index (SI) (HCT116; IC50 MRC5 / IC50 HCT116): 6.5
selectivity index (SI) (HCT116; IC50 PBMC / IC50 HCT116): 26
IC50 (HT-29; HT-29 (human colon adenocarcinoma), 72 h): 300 nM
selectivity index (SI) (HT-29; IC50 HaCAT / IC50 HT-29): 0.3
selectivity index (SI) (HT-29; IC50 MRC5 / IC50 HT-29): 4.3
selectivity index (SI) (HT-29; IC50 PBMC / IC50 HT-29): 17.3
IC50 (HepG2; HepG2 (human hepatocellular carcinoma), monolayer, 72 h): 1300 nM
selectivity index (SI) (HepG2; IC50 HaCAT / IC50 HepG2): 0.1
selectivity index (SI) (HepG2; IC50 MRC5 / IC50 HepG2): 1
selectivity index (SI) (HepG2; IC50 PBMC / IC50 HepG2): 4
selectivity index (SI) (SCC-4; IC50 HaCAT / IC50 SCC-4): 0.1
selectivity index (SI) (SCC-4; IC50 MRC5 / IC50 SCC-4): 0.6
selectivity index (SI) (SCC-4; IC50 PBMC / IC50 SCC-4): 2.5
IC50 (SCC-4; SCC-4 (human oral squamous cell carcinoma), 72 h): 2100 nM
selectivity index (SI) (SCC-9; IC50 HaCAT / IC50 SCC-9): 0.04
selectivity index (SI) (SCC-9; IC50 MRC5 / IC50 SCC-9): 0.5
selectivity index (SI) (SCC-9; IC50 PBMC / IC50 SCC-9): 2
IC50 (SCC-9; SCC-9 (human oral squamous cell carcinoma), 72 h): 2600 nM
selectivity index (SI) (SCC-15; IC50 HaCAT / IC50 SCC-15): 0.1
selectivity index (SI) (SCC-15; IC50 MRC5 / IC50 SCC-15): 0.9
selectivity index (SI) (SCC-15; IC50 PBMC / IC50 SCC-15): 3.5
IC50 (SCC-15; SCC-15 (human oral squamous cell carcinoma), 72 h): 1500 nM
selectivity index (SI) (SCC-25; IC50 HaCAT / IC50 SCC-25): 0.1
selectivity index (SI) (SCC-25; IC50 MRC5 / IC50 SCC-25): 1.3
selectivity index (SI) (SCC-25; IC50 PBMC / IC50 SCC-25): 5.2
IC50 (SCC-25; SCC-25 (human oral squamous cell carcinoma), 72 h): 1000 nM
IC50 (ACP-02; ACP-02 (human gastric adenocarcinoma), 72 h): 6800 nM
selectivity index (SI) (ACP-02; IC50 HaCAT / IC50 ACP-02): 0.02
selectivity index (SI) (ACP-02; IC50 MRC5 / IC50 ACP-02): 0.2
selectivity index (SI) (ACP-02; IC50 PBMC / IC50 ACP-02): 0.8
IC50 (HL-60; HL-60 (human promyelocytic leukemia), 72 h): 200 nM
selectivity index (SI) (HL-60; IC50 HaCAT / IC50 HL-60): 0.5
selectivity index (SI) (HL-60; IC50 MRC5 / IC50 HL-60): 6.5
selectivity index (SI) (HL-60; IC50 PBMC / IC50 HL-60): 26
selectivity index (SI) (B16-F10; IC50 HaCAT / IC50 B16-F10): 0.2
selectivity index (SI) (B16-F10; IC50 MRC5 / IC50 B16-F10): 2.2
selectivity index (SI) (B16-F10; IC50 PBMC / IC50 B16-F10): 8.7
IC50 (B16-F10; Mus musculus, B16-F10 (murine melanoma), 72 h): 600 nM
IC50 (MRC-5): 1300 nM
IC50 (HaCAT): 100 nM
IC50 (PBMC): 5200 nM
IC50 [1]: 18100 nM
IC50 (WT SV40 MEF): 40 nM
IC50 (BAD KO SV40 MEF): 410 nM
change in the number of viable cells (HepG2 cells [2]): reduced the number of viable cells
displacement of ethidium bromide from ctDNA (fluorescence) (calf thymus DNA): significantly reduced the fluorescence intensity
DNA content G0/G1 (HepG2 cells [3]; HepG2, 12 h): 51.9 ± 4.8%
DNA content G2/M (HepG2 cells [3]; HepG2, 12 h): 22.6 ± 2.6%
DNA content S (HepG2 cells [3]; HepG2, 12 h): 6.9 ± 0.1%
DNA content Sub-G0/G1 (HepG2 cells [3]; HepG2, 12 h): 13.4 ± 1.2 %
DNA content G0/G1 (HepG2 cells [3]; HepG2, 24 h): 20.9 ± 3.3 %
DNA content G2/M (HepG2 cells [3]; HepG2, 24 h): 66.9 ± 5.5 %
DNA content S (HepG2 cells [3]; HepG2, 24 h): 8.9 ± 2.3 %
DNA content Sub-G0/G1 (HepG2 cells [3]; HepG2, 24 h): 16.8 ± 4.3 %
DNA content G0/G1 (HepG2 cells [3]; HepG2, 48 h): 34.6 ± 2.7 %
DNA content G2/M (HepG2 cells [3]; HepG2, 48 h): 31.1 ± 3.3 %
DNA content S (HepG2 cells [3]; HepG2, 48 h): 9.1 ± 1.9%
DNA content Sub-G0/G1 (HepG2 cells [3]; HepG2, 48 h): 20.9 ± 1.0 %
DNA content G0/G1 (HepG2 cells [3]; HepG2, 72 h): 31.6 ± 5.1 %
DNA content G2/M (HepG2 cells [3]; HepG2, 72 h): 16.3 ± 1.1%
DNA content S (HepG2 cells [3]; HepG2, 72 h): 12.5 ± 1.1%
DNA content Sub-G0/G1 (HepG2 cells [3]; HepG2, 72 h): 46.6 ± 2.8 %
IC50 (AGP-01): 1900 nM
lung histopathological characteristics (atelectasis, hemorrhage, inflammation, congestion, doxorubicin 0.3 mg/kg, RCX both doses, 21 days): more pronounced in the doxorubicin and RCX (both doses) groups than in the other groups
Initial body weight (before treatment, DOX 0.3 mg/kg, 5-FU 10 mg/kg, RCX 2.5 mg/kg groups): 22.3 ± 0.4 g
Final body weight [4]: 19.5 ± 0.6 g
Survival [4]: 14/14
Differential leukocytes: Eosinophils [5]: 1.0%
Differential leukocytes: Lymphocytes [5]: 49.3%
Differential leukocytes: Monocytes [5]: 1.0%
Differential leukocytes: Neutrophils [5]: 48.8%
Erythrocytes [5]: 8.9 ± 0.7 10^6cells/μL
Total leukocytes [5]: 1.5 ± 0.2* 10^3cells/μL
